Measured values from patent US7439051B2, “Process for utilizing epitopes recognized by natural antibodies” (Mirus Bio Corporation, priority 1999, dated 2008).

B1: Plasminogen: plasminogen bound by Lysine-Sepharose, eluted by ε-aminocaproic acid (protein, UniProt P00747 20-810, looked up)
Plasminogen: EPLDDYVNTQGASLFSVTKKQLGAGSIEECAAKCEEDEEFTCRAFQYHSKEQQCVIMAENRKSSIIIRMRDVVLFEKKVYLSECKTGNGKNYRGTMSKTKNGITCQKWSSTSPHRPRFSPATHPSEGLEENYCRNPDNDPQGPWCYTTDPEKRYDYCDILECEEECMHCSGENYDGKISKTMSGLECQAWDSQSPHAHGYIPSKFPNKNLKKNYCRNPDRELRPWCFTTDPNKRWELCDIPRCTTPPPSSGPTYQCLKGTGENYRGNVAVTVSGHTCQHWSAQTPHTHNRTPENFPCKNLDENYCRNPDGKRAPWCHTTNSQVRWEYCKIPSCDSSPVSTEQLAPTAPPELTPVVQDCYHGDGQSYRGTSSTTTTGKKCQSWSSMTPHRHQKTPENYPNAGLTMNYCRNPDADKGPWCFTTDPSVRWEYCNLKKCSGTEASVVAPPPVVLLPDVETPSEEDCMFGNGKGYRGKRATTVTGTPCQDWAAQEPHRHSIFTPETNPRAGLEKNYCRNPDGDVGGPWCYTTNPRKLYDYCDVPQCAAPSFDCGKPQVEPKKCPGRVVGGCVAHPHSWPWQVSLRTRFGMHFCGGTLISPEWVLTAAHCLEKSPRPSSYKVILGAHQEVNLEPHVQEIEVSRLFLEPTRKDIALLKLSSPAVITDKVIPACLPSPNYVVADRTECFITGWGETQGTFGAGLLKEAQLPVIENKVCNRYEFLNGRVQSTELCAGHLAGGTDSCQGDSGGPLVCFEKDKYILQGVTSWGLGCARPNKPGVYVRVSRFVTWIEGVMRNN

Assays:
[1] = target: T1, CRP (Rattus norvegicus, UniProt P48199); assay: Reduction by PC of K+/R+ phage protection in vitro; assay type: biochemical
T1 construct: from tissue; host or cells: rat serum
T1 sequence (P48199 20-230): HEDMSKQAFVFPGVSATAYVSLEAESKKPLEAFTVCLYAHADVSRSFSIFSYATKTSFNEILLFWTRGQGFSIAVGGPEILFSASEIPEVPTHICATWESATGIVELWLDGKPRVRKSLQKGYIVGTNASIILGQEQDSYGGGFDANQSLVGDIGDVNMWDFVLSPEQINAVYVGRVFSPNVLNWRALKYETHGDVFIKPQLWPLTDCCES
From the text: PC reduced the protection of K+/R+ phage both in vivo and in vitro, thereby confirming the role of CRP as a K+/R+ protection agent (FIG. 1B and Table 2K, respectively). […] Direct interaction between CRP and K+/R+ phage was shown with the phage immobilized on Affi-Gel 15. Immobilized K+/R+ phage, but not K−/R− phage, bound a substantial amount of serum protein that was eluted from the column by ε-ACA (FIG. 2C). […] The identification of this protein as CRP was confirmed by the Western blot analysis (FIG. 2B, lanes 2 and 3). No binding of CRP to K−/R− phage or a mock column was detected. […] The presence of multiple CRP molecules on surface of K+/R+ phage could provide steric protection against C-mediated inactivation. The role of CRP in protecting K+/R+ phage against C is consistent with the lack of protection for K+/R+ phage in human serum which normally contains little CRP.

[2] = Phage survival in rat serum in vitro (plaque forming assay); assay type: in vitro ADME; conditions: protein eluted from Lysine-Sepharose by ε-ACA; data not shown
Method: Serum preparation. Rat serum was prepared by clotting blood on ice.

| Molecule | IC50 ([1]; K+19/16 clone) | IC50 ([1]; R+19/14 clone) | protective effect on phage [2] |
| --- | --- | --- | --- |
| C[N+](C)(C)CCOP(=O)(O)O [PC, phosphorylcholine] | ~50 µM | ~50 µM |  |
| B1 |  |  | no protective effect |
